The record followed here is US6608062B1 (dated 2003).

Each structure is given as a SMILES string.

The melting point is the temperature of the solid-liquid transition. The molecule `Cc1nnc(-c2ccccc2)c2nc(OCc3ncnn3C)c(C3CCCC3)n12` returned a melting point of 137 °C. Turning to `Cn1ncnc1COc1nc2c(-c3ccccc3F)nncn2c1-c1ccccc1`, the melting point amounted to 195 °C.

Molecule `CCn1ncnc1COc1nc2c(-c3ccccc3)nnc(C)n2c1C1CCCC1` gave a melting point of 94 to 96 °C. Next, `Cn1cnc(COc2nc3c(-c4ccccc4F)nncn3c2-c2ccccc2)n1`: 186 °C; `Cn1ncnc1COc1nc2c(-c3cc(F)ccc3F)nncn2c1-c1ccccc1`: 200 °C; `Cn1ncnc1COc1nc2c(-c3ccc(F)cc3)nncn2c1-c1ccccc1`: 130 °C.

As for `Cn1ncnc1COc1nc2c(-c3c(F)cccc3F)nncn2c1-c1ccccc1`, the melting point was 190 °C. Next, `Cn1ncnc1COc1nc2c(-c3ccccc3F)nncn2c1C1CCC1`: 120 °C; `Cn1ncnc1COc1nc2c(-c3ccccc3)nncn2c1-c1cccc(Cl)c1`: 80 to 84 °C. Next, `Cc1nnc(-c2ccccc2)c2nc(OCc3ncnn3C)c(C3CCC3)n12`: 160 °C. Next, `Cn1ncnc1COc1nc2c(-c3ccccc3)nncn2c1-c1ccccc1` (hydrate or solvate): 179 °C.
